# Laboratory results as given in patent US10125134B2 (Mirati Therapeutics, Inc., priority 2016, dated 2018).
# Read-outs that look alike come from different tables or passages of the source.
# What was measured:
# [1] = biological target: KRas G12C (Homo sapiens, UniProt P01116, C118S/C51S/C80L/G12C); assay: KRas G12C Modification Assay (LCMS detection of covalent adduct); type: binding
# Outline: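 Cys-light KRas G12C mutant protein incubated with compound in K-Ras assay buffer, reactions quenched at set time points with 25 mM acetic acid and analysed by intact-protein LC/MS on a C-3 column. Deconvoluted mass heights expressed as percent of control (POC) relative to compound-free protein.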
# [2] = system: NCI-H358 cells (express KRas G12C), Phospho-ERK; assay: Cellular inhibition of KRas G12C: Phospho-ERK in NCI-H358 cells; type: cell-based
# Outline: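 IC50 derived by 4-parameter fit of GAPDH-normalized pERK(Thr202/Tyr204) signal, as percent of DMSO control. Signal came from in-cell immunodetection with infrared secondaries after 3 h compound exposure of KRas G12C NCI-H358 cells at 0.5% DMSO.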
# [3] = normalized percent of control, tested at 5 μM concentration for 3 hours
# [4] = Homo sapiens, NCI-H358, 3 h, pERK(Thr202/Tyr204) normalized with GAPDH, NCI-H358 cells, 3 hours, read-out: IC50
# [5] = Homo sapiens, pERK(Thr202/Tyr204) normalized with GAPDH, NCI-H358 cells, 3 hours, read-out: IC50
Structure (SMILES),"POC [1, 3]","IC50 [2, 4] [nM]",further results
"C=CC(=O)N1CCN(c2nc(N3CCN(C)CC3)nc3c2CCN(c2cc(O)cc4ccccc24)C3)CC1 [Example 12, 1-(4-(7-(3-hydroxynaphthalen-1-yl)-2-(4-methylpiperazin-1-yl)-5,6,7,8-tetrahydropyrido[3,4-d]pyrimidin-4-yl)piperazin-1-yl)prop-2-en-1-one]",C (“C”>50% POC),> 1000,
"C=CC(=O)N1CCN(c2nc(OC[C@@H]3CCCN3C(C)C)nc3c2CCN(c2cccc4ccccc24)C3)CC1CC#N (stereo partly drawn) [Example 285, 2-[4-[2-[[(2S)-1-isopropylpyrrolidin-2-yl]methoxy]-7-(1-naphthyl)-6,8-dihydro-5H-pyrido[3,4-d]pyrimidin-4-yl]-1-prop-2-enoyl-piperazin-2-yl]acetonitrile]",C (“C”>50% POC),0.1 to 1000,
"C=CC(=O)N1CCN(c2nc(OCCCN3CCOCC3)nc3c2CCN(c2c(F)c(O)cc4ccccc24)C3)CC1 [Example 165, 1-[4-[7-(2-fluoro-3-hydroxy-1-naphthyl)-2-(3-morpholinopropoxy)-6,8-dihydro-5H-pyrido[3,4-d]pyrimidin-4-yl]piperazin-1-yl]prop-2-en-1-one]",,,"POC ([1]; 5 µM): C (key: “A”≤25% POC; “B”>25% POC−≤50% POC; “C”>50% POC); IC50 ([2]; Homo sapiens, NCI-H358, 3 h): > 1000 nM"
"C=CC(=O)N1CCN(c2nc(OC[C@@H]3CCCN3C)nc3c2CCN(c2ccncc2C(F)(F)F)C3)CC1CC#N (stereo partly drawn) [Example 239, 2-(1-acryloyl-4-(2-(((S)-1-methylpyrrolidin-2-yl)methoxy)-7-(3-(trifluoromethyl)pyridin-4-yl)-5,6,7,8-tetrahydropyrido[3,4-d]pyrimidin-4-yl)piperazin-2-yl)acetonitrile]",C (“C”>50% POC),> 1000,
"C=CC(=O)N1CCN(c2nc(OC[C@@H]3C[C@@H](OC)CN3C)nc3c2CCN(c2cccc4ccccc24)C3)CC1CC#N (stereo partly drawn) [Example 268, 2-(1-acryloyl-4-(2-(((2S,4R)-4-methoxy-1-methylpyrrolidin-2-yl)methoxy)-7-(naphthalen-1-yl)-5,6,7,8-tetrahydropyrido[3,4-d]pyrimidin-4-yl)piperazin-2-yl)acetonitrile]",C (“C”>50% POC),0.1 to 1000,
"C=CC(=O)N1CCN(c2nc(OC[C@@H]3CCCN3C)nc3c2CCN(c2cnccc2OC)C3)C[C@@H]1CC#N [Example 340, 2-((S)-1-acryloyl-4-(7-(4-methoxypyridin-3-yl)-2-(((S)-1-methylpyrrolidin-2-yl)methoxy)-5,6,7,8-tetrahydropyrido[3,4-d]pyrimidin-4-yl)piperazin-2-yl)acetonitrile]",C (“C”>50% POC),> 1000,
"C=CC(=O)N1CCN(c2nc(O[C@@H]3CCCN(C)C3)nc3c2CCN(c2cc(O)cc4ccccc24)C3)CC1 [Example 67, (R)-1-(4-(7-(3-hydroxynaphthalen-1-yl)-2-((1-methylpiperidin-3-yl)oxy)-5,6,7,8-tetrahydropyrido[3,4-d]pyrimidin-4-yl)piperazin-1-yl)prop-2-en-1-one]",C (“C”>50% POC),0.1 to 1000,
"C=CC(=O)N1CCN(c2nc(OC[C@@H]3CCCN3C)nc3c2CCN(c2ccc(F)c4ccccc24)C3)CC1CC#N (stereo partly drawn) [Example 246, 2-[4-[7-(4-fluoro-1-naphthyl)-2-[[(2S)-1-methylpyrrolidin-2-yl]methoxy]-6,8-dihydro-5H-pyrido[3,4-d]pyrimidin-4-yl]-1-prop-2-enoyl-piperazin-2-yl]acetonitrile]",C (“C”>50% POC),0.1 to 1000,
"C=CC(=O)N1CCN(c2nc(OC[C@@H]3CCCN3C)nc3c2CCN(c2ccccc2C(F)F)C3)CC1CC#N (stereo partly drawn) [Example 447, 2-(1-Acryloyl-4-(7-(2-(difluoromethyl)phenyl)-2-(((S)-1-methylpyrrolidin-2-yl)methoxy)-5,6,7,8-tetrahydropyrido[3,4-d]pyrimidin-4-yl)piperazin-2-yl)acetonitrile]",C (“C”>50% POC),0.1 to 1000,
"C=CC(=O)N1CCN(c2ncnc3c2CCN(c2nc(N)cc4ccccc24)C3)CC1 [Example 54, 1-[4-[7-(3-amino-1-isoquinolyl)-6,8-dihydro-5H-pyrido[3,4-d]pyrimidin-4-yl]piperazin-1-yl]prop-2-en-1-one]",A (“A”≤25% POC),,"IC50 [2, 5]: > 1000 nM"
"C=CC(=O)N1CCN(c2nc(OC[C@@H]3CCCN3C)nc3c2CCN(c2ccnc4ccccc24)C3)CC1CC#N (stereo partly drawn) [Example 295, 2-[4-[2-[[(2S)-1-methylpyrrolidin-2-yl]methoxy]-7-(4-quinolyl)-6,8-dihydro-5H-pyrido[3,4-d]pyrimidin-4-yl]-1-prop-2-enoyl-piperazin-2-yl]acetonitrile]",,,"POC ([1]; normalized percent of control, tested at 5 μM concentration for 3 hours, 5 µM): A (“A”≤25% POC); IC50 ([2]; pERK(Thr202/Tyr204) normalized with GAPDH, NCI-H358 cells, 3 hours, read-out: IC50): > 1000 nM"
"C=CC(=O)N1CCN(c2nc(OC[C@@H]3C[C@@H](F)CN3C)nc3c2CCN(c2cc(O)cc4ccccc24)C3)CC1 [Example 357, 1-[4-[2-[[(2S,4R)-4-fluoro-1-methyl-pyrrolidin-2-yl]methoxy]-7-(3-hydroxy-1-naphthyl)-6,8-dihydro-5H-pyrido[3,4-d]pyrimidin-4-yl]piperazin-1-yl]prop-2-en-1-one]",A (“A”≤25% POC),0.1 to 1000,
"C=CC(=O)N1CCN(c2nc(O[C@@H](C)CN(C)C)nc3c2CCN(c2cc(O)cc4ccccc24)C3)CC1 [Example 8, (S)-1-(4-(2-((1-(dimethylamino)propan-2-yl)oxy)-7-(3-hydroxynaphthalen-1-yl)-5,6,7,8-tetrahydropyrido[3,4-d]pyrimidin-4-yl)piperazin-1-yl)prop-2-en-1-one]",B (“B”>25% POC−≤50% POC),> 1000,
"C=CC(=O)N1CCN(c2nc(OCCN3CCC(OC)C3)nc3c2CCN(c2cc(O)cc4ccccc24)C3)CC1 (stereo not shown) [Example 136, 1-[4-[7-(3-hydroxy-1-naphthyl)-2-[2-(3-methoxypyrrolidin-1-yl)ethoxy]-6,8-dihydro-5H-pyrido[3,4-d]pyrimidin-4-yl]piperazin-1-yl]prop-2-en-1-one]",C (“C”>50% POC),> 1000,
"C=CC(=O)N1CCN(c2nc(O[C@H](CC)CN(C)C)nc3c2CCN(c2cc(O)cc4ccccc24)C3)CC1 [Example 60, (R)-1-(4-(2-((1-(dimethylamino)butan-2-yl)oxy)-7-(3-hydroxynaphthalen-1-yl)-5,6,7,8-tetrahydropyrido[3,4-d]pyrimidin-4-yl)piperazin-1-yl)prop-2-en-1-one]",C (“C”>50% POC),> 1000,
"C=CC(=O)N1CCN(c2nc(OC[C@@H]3CCCN3C(C)C)nc3c2CCN(c2cccc4ccccc24)C3)CC1CC#N (stereo partly drawn) [Example 252, 2-[4-[2-[[(2S)-1-isopropylpyrrolidin-2-yl]methoxy]-7-(1-naphthyl)-6,8-dihydro-5H-pyrido[3,4-d]pyrimidin-4-yl]-1-prop-2-enoyl-piperazin-2-yl]acetonitrile]",C (“C”>50% POC),,"IC50 [2, 5]: 0.1 to 1000 nM"
"C=CC(=O)N1CCN(c2nc(OCC3CN(C)CCN3)nc3c2CCN(c2cc(O)cc4ccccc24)C3)CC1 (stereo not shown) [Example 80, 1-(4-(7-(3-hydroxynaphthalen-1-yl)-2-((4-methylpiperazin-2-yl)methoxy)-5,6,7,8-tetrahydropyrido[3,4-d]pyrimidin-4-yl)piperazin-1-yl)prop-2-en-1-one]",C (“C”>50% POC),> 1000,
